{"source": "patent US20110027251A1", "about": "“NOVEL USES FOR 4-PHENYLBUTYRATE (4PBA) AND ITS PHARMACEUTICALLY ACCEPTABLE SALTS” (priority 2008, published 2011)", "format_in_all_cases": "in vivo", "key": {"[1]": {"test_system": "Tg2576 transgenic mice", "experiment": "Morris water maze (spatial learning and memory)", "excerpt": "We used Tg2576 transgenic mice with Alzheimer's Disease expressing the 695-aa human APP isoform which contains the double APPswe Swedish mutation [(APP695) Lys670→Asn, Met671→Leu] triggered by a […] hamster promoter. In the Tg2576 transgenic mice suffering from Alzheimer's disease used in the experimental murine model, the Aβ peptide content in the brain accumulates exponentially between their 7th and 12th months of life. […] Therefore 16 months old Tg2576 transgenic mice females were treated once a day intraperitoneally with 200 mg/kg 4PBA or its vehicle during 5 weeks. To do this a 4PBA solution was prepared titrating equimolecular amounts of 4-phenylbutyric acid (Sigma) and sodium hydroxide at a pH: 7.4. A group of normal mice, not genetically altered, from same similar strains and ages was used as control group. All the clinical test procedures were performed according to the European and the Spanish legislation (86/609/CEE; RD 1201/2005).\nThe Morris water maze was used to evaluate the operational and reference memory functions in Tg2576 transgenic mice treated with 4 PBA as described previously in the literature (Ribe et al., 2005). Groups of Tg2576 female mice treated with 4PBA (n=6), vehicle (n=7), and non-transgenic litter siblings (n=10) were subjected to spatial learning and memory tests using the Morris water maze when they became 16 months old. The maze consisted of a circular pool filled with water at 20° C. The mice received prior training in a pool with a visible platform during 3 consecutive days (8 tests per day) being able to swim towards a platform raised above the water level. The training with hidden platform took 9 consecutive days (4 tests per day) during which all mice were allowed 60 seconds to find the platform submerged 1cm below the water surface. […] All the trials were monitored with a VHS camera and the Watermaze software to analyze escape latencies and the percentage of time of occupation of each pool quadrant during prior tests (using the Ethovision software, Wageninge, Netherlands). […]"}, "[2]": {"test_system": "MAP-2", "experiment": "Quantitative western blot of MAP-2 in hippocampal extracts", "conditions": "Tg2576 mice, 200 mg/kg i.p. 5 weeks; untreated Tg2576 54.9±10.7, non-transgenic 100.0±14.9 (FIG. 6)", "excerpt": "(§1) We used Tg2576 transgenic mice with Alzheimer's Disease expressing the 695-aa human APP isoform which contains the double APPswe Swedish mutation [(APP695) Lys670→Asn, Met671→Leu] triggered by a […] hamster promoter. In the Tg2576 transgenic mice suffering from Alzheimer's disease used in the experimental murine model, the Aβ peptide content in the brain accumulates exponentially between their 7th and 12th months of life. […] Therefore 16 months old Tg2576 transgenic mice females were treated once a day intraperitoneally with 200 mg/kg 4PBA or its vehicle during 5 weeks. […]\n(§2) NaF) spun at 14,000×g, 4° C. for 20 min and the aliquots obtained from the supernatant were then freeze-dried at −80° C. […] Protein concentration was determined in both cases (using the Bradford test from Bio-Rad) and the aliquots stored at −80° C. until further use. […]\n(§3) To carry out the Western Blot analyses, protein samples were mixed in buffers having the same volumes (2×Laemmli) resolved in SDS-polyacrylamide gels and transferred to a nitrocellulose membrane. […] After two washings in PBS/Tween-20 or TBS/Tween20 and one washing in PBS or TBS, immunolabelled protein bands were detected using an anti-rabbit or anti-mouse HRP conjugate (Santa Cruz, 1:5000 dilution) followed by a chemiluminescence system (ECL Amersham Biosciences), and autoradiographic exposure to HyperfilmTMECL (Amersham Biosciences). […]"}, "[3]": {"test_system": "Aβ42", "experiment": "Aβ42 level in cerebral cortex, sandwich ELISA", "conditions": "Tg2576 mice, 200 mg/kg i.p. 5 weeks; compared with vehicle-treated transgenic mice (FIG. 2A)", "excerpt": "as §1, with “weeks. To do this a 4PBA solution was prepared titrating equimolecular amounts of 4-phenylbutyric acid (Sigma) and sodium hydroxide at a pH: 7.4.” for “weeks.”\n(§4) Mice were sacrificed 24 hours after performing the last test in the Morris water maze. […] Then the levels of Aβ40 and Aβ42 in the cerebral cortex were analyzed by a sandwich type ELISA test.\n(§5) The cerebral cortexes were homogenized in a buffer containing 5 M guanidine HCl and 50 mM Tris HCl at a pH=8, protease inhibitors (Roche's CompleteTM Protease Inhibitor Cocktail), and phosphatase inhibitors (0.1 mM Na3VO4, 1 mM NaF). […] Aliquots of the supernatant were freeze-dried at −80° C. and the protein concentration determined using the Bradford method with the Bio-Rad kit. Aβ42 levels were measured with an extra sensitive sandwich-type ELISA kit from Biosource (Camarillo, Calif., USA). […]"}, "[4]": {"test_system": "tau phosphorylated at Ser-202/Thr-205 (AT8)", "experiment": "Western blot of phosphorylated tau (AT8) in hippocampus", "conditions": "Tg2576 mice, 200 mg/kg i.p. 5 weeks; compared with non-transgenic mice (FIG. 3A)", "excerpt": "as §1, §2, §3"}, "[5]": {"test_system": "GluR1 subunit of the AMPA receptor", "experiment": "Western blot of GluR1 in membrane enriched hippocampal protein extracts", "conditions": "Tg2576 mice, 200 mg/kg i.p. 5 weeks, vehicle 81.18±9.5%, non-transgenic 100.0±6.5% (FIG. 6)", "excerpt": "as §1, §2, §3"}, "[6]": {"test_system": "GRP78", "experiment": "Western blot of GRP78 in hippocampus", "conditions": "Tg2576 mice, 200 mg/kg i.p. 5 weeks; compared with non-transgenic mice (FIG. 4)", "excerpt": "as §1, §2, §3"}, "[7]": {"test_system": "histone 4 (H4)", "experiment": "Western blot of acetylated histone 4 in cortex", "conditions": "Tg2576 mice, 200 mg/kg i.p. 5 weeks; cortex extracts (FIG. 5)", "excerpt": "as §1, with “weeks. To do this a 4PBA solution was prepared titrating equimolecular amounts of 4-phenylbutyric acid (Sigma) and sodium hydroxide at a pH: 7.4.” for “weeks.”\nTo carry out the Western Blot analyses, protein samples were mixed in buffers having the same volumes (2×Laemmli) resolved in SDS-polyacrylamide gels and transferred to a nitrocellulose membrane. […] After two washings in PBS/Tween-20 or TBS/Tween20 and one washing in PBS or TBS, immunolabelled protein bands were detected using an anti-rabbit or anti-mouse HRP conjugate (Santa Cruz, 1:5000 dilution) followed by a chemiluminescence system (ECL Amersham Biosciences), and autoradiographic exposure to HyperfilmTMECL (Amersham Biosciences). The signals were quantified using the Scion Image program (Scion Corporation)."}, "[8]": {"test_system": "PSD95", "experiment": "Western blot of PSD95 in membrane enriched hippocampal protein extracts", "conditions": "Tg2576 mice, 200 mg/kg i.p. 5 weeks; membrane enriched hippocampal extracts (FIG. 6)", "excerpt": "as §1, §2, §3"}, "[9]": {"test_system": "GSK3b phosphorylated at Ser 9", "experiment": "Western blot of inactive GSK3b phosphorylated at Ser 9 in hippocampus", "conditions": "Tg2576 mice, 200 mg/kg i.p. 5 weeks; compared with vehicle-treated transgenic mice (FIG. 3B)", "excerpt": "as §1, §2, §3"}, "[10]": {"test_system": "Aβ40", "experiment": "Aβ40 level in cerebral cortex, sandwich ELISA", "conditions": "Tg2576 mice, 200 mg/kg i.p. 5 weeks; compared with vehicle-treated transgenic mice (FIG. 2A)", "excerpt": "as §1, with “weeks. To do this a 4PBA solution was prepared titrating equimolecular amounts of 4-phenylbutyric acid (Sigma) and sodium hydroxide at a pH: 7.4.” for “weeks.”\nas §4, §5"}}}
{"smiles": "O=C([O-])CCCc1ccccc1.[Na+]", "note": "[4PBA, 4-phenylbutyric acid]", "values": [{"measurement": "proficiency in Morris water maze, invisible platform (escape latency)", "setting": "[1]; 16 month old Tg2576 female mice, 200 mg/kg i.p. once a day for 5 weeks, compared with non-transgenic control mice of same age (FIG. 1B)", "result": "did not differ"}, {"measurement": "escape latencies, visible platform training", "setting": "[1]; Tg2576 mice, 200 mg/kg i.p. 5 weeks, first training tests with visible platform (FIG. 1A)", "result": "did not differ significantly"}, {"measurement": "percentage of time spent in the target quadrant (memory retention)", "setting": "[1]; Tg2576 mice, 200 mg/kg i.p. 5 weeks, platform removed, compared with control group of same age (FIG. 1C)", "result": "did not differ"}, {"measurement": "MAP-2 expression levels", "setting": "[2]", "result": "77.7±11.6"}, {"measurement": "Aβ42 levels in cerebral cortex", "setting": "[3]", "result": "no difference was observed"}, {"measurement": "phosphorylated tau at the AT8 site in hippocampus", "setting": "[4]", "result": "no differences were found"}, {"measurement": "expression levels of the GluR1 subunit of the AMPA receptor", "setting": "[5]", "result": "161.37±27.5", "unit": "%"}, {"measurement": "GRP78 levels in hippocampus", "setting": "[6]", "result": "did not differ"}, {"measurement": "acetylation of cortical histone 4 (H4)", "setting": "[7]", "result": "induction of acetylation"}, {"measurement": "expression of PSD95 levels", "setting": "[8]", "result": "induced significantly"}, {"measurement": "levels of inactive GSK3b phosphorylated at Ser 9 in hippocampus", "setting": "[9]", "result": "higher"}, {"measurement": "Aβ40 levels in cerebral cortex", "setting": "[10]", "result": "no difference was observed"}]}
